# Results reported in ChEMBL document CHEMBL2029333, “Synthesis of norlignans and in vitro inhibitory activity of antigen-induced degranulation” (Bioorg Med Chem Lett, 2012).
# Tested on: RBL-2H3
# Experiment: Inhibition of DNP-BSA-induced degranulation in rat RBL2H3 cells assessed as reduction in beta-hexosaminidase release after 20 mins by spectrophotometry
# Type: functional, cell-based
# Conditions: RBL-2H3, 20 min
row,IC50,Compound
1,55.2 µM,C=CC(/C=C/c1ccc(O)cc1)c1ccc(O)cc1 (stereo not given)
2,88.5 µM,C=CC(CC(=O)c1ccc(OC)cc1)c1ccc(OC)cc1 (stereo not given)
3,18.3 µM,C=CC(CC(=O)c1ccc(O)cc1)c1cccc(O)c1 (stereo not given)
4,85.4 µM,C=CC(CC(=O)c1ccc(OC)cc1)c1cccc(OC)c1 (stereo not given)
5,17.9 µM,C=CC(CC(=O)c1ccc(O)cc1)c1cccc(OC)c1 (stereo not given)
6,90.5 µM,C=CC(CC(=O)c1ccc(OC)cc1)c1cccc(O)c1 (stereo not given)
7,> 200 µM,C=CC(CC(O)c1ccc(O)cc1)c1ccc(O)cc1 (stereo not given)
8,> 200 µM,C=CC(CC(O)c1ccc(OC)cc1)c1ccc(OC)cc1 (stereo not given)
9,34.1 µM,C=CC(CC(O)c1ccc(O)cc1)c1cccc(O)c1 (stereo not given)
10,> 200 µM,C=CC(CC(O)c1ccc(OC)cc1)c1cccc(OC)c1 (stereo not given)
11,> 200 µM,C=CC(/C=C/c1ccc(OC)cc1)c1ccc(OC)cc1 (stereo not given)
12,55.6 µM,C=CC(/C=C/c1ccc(O)cc1)c1cccc(O)c1 (stereo not given)
13,> 200 µM,C=CC(/C=C/c1ccc(OC)cc1)c1cccc(OC)c1 (stereo not given)
14,34.6 µM,C=CC(CC(=O)c1ccc(O)cc1)c1ccc(O)cc1 (stereo not given)
15,35.2 µM,CN1CCC(=C2c3ccccc3CC(=O)c3sccc32)CC1 [KETOTIFEN]
